Laboratory results taken from article PMC9558510 (Cancers, 2022).

Columns and labels:
[1] = Observed steady-state serum concentrations (LC-MS/MS) in melanoma patients; assay type: in vivo, human; settings: for effect of co-medication with at least one P-gp inducer on individual mean trough concentrations / serum Cmin mean / serum Cmin median: standard dose
Procedure: Serum samples were collected regularly during each routine outpatient visit from study enrollment until January 2022 or until treatment discontinuation. If possible, blood sampling was performed before the next drug administration, but any time interval between the last administration and blood withdrawal was accepted. The steady-state was assumed after continuous dosing for fourteen days for both compounds.
Hydroxy-dabrafenib concentrations were analyzed using a different previously published LC-MS/MS method with an LLOQ of 10 ng/mL [37]. […] Hydroxy-dabrafenib was not quantified in capillary blood samples as the methodology was not available at the time of analysis. All the methods have been validated according to the guidelines of the U.S. Food and Drug Administration and/or the European Medicines Agency.
Data were collected and processed using Microsoft Excel 2016 Version 16.0 (Microsoft Corporation, Redmond, WA, USA). Statistical calculations and visualization of results were performed with R Studio Version 1.2.5042 (RStudio Incorporation, Boston, MA, USA) running R version 4.0.5 (R Foundation for Statistical Computing, Vienna, Austria, 2020). For further analysis, serum concentrations were divided into groups according to time interval post-dose as follows: 0–5 h, 5–10 h, 10–14 h, and >14 h for (hydroxy-)dabrafenib and 0–10 h, 10–20 h, 20–30 h, and >30 h for trametinib. Concentrations < LLOQ were excluded from further statistical analyses. The concentrations of the same patient at the same dosage and within the same post-dose group were summarized into an individual mean serum concentration for descriptive statistical analysis to account for potential bias caused by the unbalanced number of samples per patient. […] The Wilcoxon […] test was used for unpaired samples. The correlations between individual PK parameters sampled from the conditional distribution during the generation of EBE (methods for estimation see below) and age, sex, body mass index (BMI), and co-medication were analyzed using analysis of variance (ANOVA) and Spearman’s correlation coefficient. Logistic regression was used to compare the risk of treatment discontinuations or dose reductions (dabrafenib dose reduction or discontinuation, trametinib dose reduction or discontinuation, or any dose reduction or discontinuation) with the corresponding predicted trough concentrations and area under the curve of a dosing interval (AUCτ) of dabrafenib, hydroxy-dabrafenib, and trametinib as well as with the composite predicted dabrafenib/hydroxy-dabrafenib trough concentration and with composite dabrafenib/hydroxy-dabrafenib AUCτ assuming standard dosing. The Hosmer–Lemeshow test was used to evaluate the goodness of fit for our logistic regression model. Due to the explorative nature of the study, p-values obtained from multiple comparisons were not corrected for multiple testing. A p-value < 0.05 was considered statistically significant.

[2] = parameters: method as in PMID 24408395; settings: cited from earlier work
[3] = parameters: method as in PMID 33846903; settings: cited from earlier work
[4] = serum, dabrafenib dose of 150 mg q12h

Compound	effect of co-medication with at least one P-gp inducer on individual mean trough concentrations ([1]; serum)	serum Cmin mean ([1]; BMI (kg/m2) < 30) [ng/mL]	serum Cmin median ([1]; BMI (kg/m2) < 30) [ng/mL]	serum Cmin mean ([1]; BMI (kg/m2) >= 30) [ng/mL]	serum Cmin median ([1]; BMI (kg/m2) >= 30) [ng/mL]	serum Cmin mean ([1]; P-gp inducer: no) [ng/mL]	serum Cmin median ([1]; P-gp inducer: no) [ng/mL]	serum Cmin mean ([1]; P-gp inducer: yes) [ng/mL]	serum Cmin median ([1]; P-gp inducer: yes) [ng/mL]	serum Cmin mean ([1]; P-gp inhibitor: no) [ng/mL]	serum Cmin median ([1]; P-gp inhibitor: no) [ng/mL]	serum Cmin mean ([1]; P-gp inhibitor: yes) [ng/mL]	serum Cmin median ([1]; P-gp inhibitor: yes) [ng/mL]	serum Cmin mean ([1]; PPI: no) [ng/mL]	serum Cmin median ([1]; PPI: no) [ng/mL]	serum Cmin mean ([1]; PPI: yes) [ng/mL]	serum Cmin median ([1]; PPI: yes) [ng/mL]	serum Cmin mean ([1]; age above 65: no) [ng/mL]	serum Cmin median ([1]; age above 65: no) [ng/mL]	serum Cmin mean ([1]; age above 65: yes) [ng/mL]	other results
CC(C)(C)c1nc(-c2cccc(NS(=O)(=O)c3c(F)cccc3F)c2F)c(-c2ccnc(N)n2)s1 [dabrafenib]	no effect	46.5	42.9	69.1	54	60.9	48	40.4	41.8	77.8	52.9	42.4	41.8	63.1	51.6	32.4	32.4	54.9	43.5	51.9	median of individual mean trough concentration [1, 4]: 45.0 ng/mL; range of individual mean trough concentration [1, 4]: 20 to 155 ng/mL; serum Cmin median ([1]; age above 65: yes): 42.9 ng/mL; serum Cmin mean ([1]; moderate CYP2C8 inhibitor: no): 58.9 ng/mL; serum Cmin median ([1]; moderate CYP2C8 inhibitor: no): 44.3 ng/mL; serum Cmin mean ([1]; moderate CYP2C8 inhibitor: yes): 46.9 ng/mL; serum Cmin median ([1]; moderate CYP2C8 inhibitor: yes): 47.4 ng/mL; serum Cmin mean ([1]; sex female): 75.5 ng/mL; serum Cmin median ([1]; sex female): 52.9 ng/mL; serum Cmin mean ([1]; sex male): 36.5 ng/mL; serum Cmin median ([1]; sex male): 39.3 ng/mL; CYP3A autoinduction: induction half-life [2]: approximately 67 h; half-life [2]: eight; protein binding [3]: > 99.5%
CC(=O)Nc1cccc(-n2c(=O)n(C3CC3)c(=O)c3c(Nc4ccc(I)cc4F)n(C)c(=O)c(C)c32)c1 [trametinib]	significant decrease	11.2	11.4	9.93	9.79	11.5	11.7	9.3	9.68	10.9	11.3	10.5	10.9	10.8	11.5	10.7	10.9	10.6	11.3	10.9	median of mean trough concentration ([1]; serum, 2 mg q24h): 11.2 ng/mL; range of mean trough concentration ([1]; serum, 2 mg q24h): 6.22 to 15.9 ng/mL; serum Cmin median ([1]; age above 65: yes): 10.9 ng/mL; serum Cmin mean ([1]; sex female): 11.1 ng/mL; serum Cmin median ([1]; sex female): 11.3 ng/mL; serum Cmin mean ([1]; sex male): 10.6 ng/mL; serum Cmin median ([1]; sex male): 11.2 ng/mL
